Tested on: IL-1β secretion, THP-1 cells
Assay: IL-1β secretion assay in PMA-differentiated THP-1 cells stimulated with LPS and nigericin (ELISA readout)
Format: cell-based
Details: 25 ng/mL LPS then nigericin
Procedure: Compounds as provided herein were tested in the following assay. Cell culture medium employed contained RPMI 1640 medium (89%), FBS (10%), Pen/Strep (1%), and 2-mercaptoethanol (0.05 mM). Freezing medium was made up of 90% FBS and 10% DMSO. THP-1 cells were removed from the liquid nitrogen and placed into a 37° C. water bath to thaw, until signs of ice dissipated. The cells were then added to 9 mL of warm cell culture medium and centrifuged for 5 minutes at 1000 rpm. The supernatant was discarded, and the cells were resuspended in new cell culture medium. THP-1 cells were then split and cultured in the cell culture medium, being passaged every 2-3 days with the cell density will be maintained between 5×10^5 and 1.5×10^6 viable cells/mL.
PMA was dissolved in DMSO to make a stock solution at 5 mg/ml and stored in 10 µl aliquots at -20° C. for single use. PMA is added to normal growth medium. LPS was diluted with 1 mL of water solution to provide a 1 mg/mL stock solution and stored in 15 µl aliquots at -20° C. for single use. Nigericin is diluted in ice cold 100% ethanol to 5 mg/ml (6.7 mM) and stored in 75 µL aliquots at -20° C. for single use. Serum-free media contains RPMI 1640 medium (99%), Pen/Strep (1%), and 2-mercaptoethanol (0.05 mM). The two control conditions used to qualify and normalize test compound dose-response curves were as follows: High Control = 25 ng/mL LPS, 5 µM Nigericin, 0.5% DMSO, Low Control = 25 ng/mL, LPS, 0.5% DMSO.
THP-1 cells were diluted to provide a suspension at a concentration of 1.0×10^6 cells/mL with the total volume of suspension required to enable the desired number of assay plates. The growth media was supplemented with PMA (5 ng/mL final concentration) and the cells were incubated at 37° C. under a humidified atmosphere of 5% CO2 for 40 h.
All media was carefully aspirated from each culture flask. The cells were washed carefully with 1x DPBS. The cells were then briefly digested with trypsin LE for 5 minutes at 23° C. and immediately resuspended in cell growth media. After resuspension, the cells were centrifuged at 1000 rpm for 3 minutes and the supernatant was discarded. The cells were resuspended in DPBS and once again centrifuged at 1000 rpm for 5 minutes. The supernatant was discarded and the cell pellet was resuspended in serum-free media supplemented with LPS (25 ng/mL final concentration) to enable the distribution of 30 K THP-1 cells within 45 µL of media into each well of 384-well PDL-coated plates. The 384-well plates were then incubated at 37° C. under a humidified atmosphere of 5% CO2 for 2 h. Following this period, test compounds were dispensed by Tecan across the desired concentration range with all wells normalized to a final 0.5 % DMSO concentration. The plates were then then incubated at 37° C. under a humidified atmosphere of 5% CO2 for 1 h. Following this period, 5 µL of the […] nigericin stock solution was added to each of the appropriate wells and plates were centrifuged at 1000 rpm for 30 seconds. The plates were the immediately reintroduced to the incubator at 37° C. under a humidified atmosphere of 5% CO2 for 2 h. After this time, 35 µL/well of supernatant was collected and transferred into v-bottom plate and centrifuged at 1000 rpm for 1 minute. These supernatant aliquots were analyzed using an IL-Iβ detection kit as described below. If needed, the test samples could be snap frozen and stored at -80° C. until analyzed.
To prepare each ELISA plate, capture antibody (mAb Mt175) was diluted with PBS to a final concentration of 2 µg/mL and then 20 µL of this solution was added to each well of the ELISA plate. Each plate was allowed to incubate overnight at 4° C. The next day, the capture antibody solution was removed and discarded. Each ELISA plate was washed 4 times with PBST followed by the addition of 25 µL/well of blocking buffer (Licor-927-40010) supplemented with 0.1% Tween 20. Each ELISA plate was then allowed to incubate for 1 hour at 23° C. […]

[1] = Homo sapiens, THP-1, inhibition of IL-1β secretion, class column of Table 3
[2] = Homo sapiens, THP-1, inhibition of IL-1β secretion, numeric column of Table 3

## CC(C)c1nn(CC(=O)Nc2nn(C)cc2F)c(=O)c2ccc(Br)cc12 [Example 62, 2-(6-bromo-1-oxo-4-propan-2-ylphthalazin-2-yl)-N-(4-fluoro-1-methylpyrazol-3-yl)acetamide]
[1]
  IC50: 10 to 15 µM
[2]
  IC50: 10.3 µM

## O=C(Cn1nc(C(F)F)c2cc(Br)ccc2c1=O)Nc1ncccn1 [Example 93, 2-[6-bromo-4-(difluoromethyl)-1-oxo-phthalazin-2-yl]-N-pyrimidin-2-yl-acetamide]
[1]
  IC50: < 10 µM
[2]
  IC50: 0.14 µM

## CCN1CCC[C@@H](NC(=O)Cn2nc(C(F)(F)F)c3cc(Br)ccc3c2=O)C1 [Example 89, 2-[6-bromo-1-oxo-4-(trifluoromethyl)phthalazin-2-yl]-N-[(3R)-1-ethylpiperidin-3-yl]acetamide]
[1]
  IC50: < 10 µM
[2]
  IC50: 0.764 µM

## CC(C)c1nn(CC(=O)NC2CCOC2)c(=O)c2ccc(Br)cc12 (stereo not drawn) [Example 52, 2-(6-bromo-1-oxo-4-propan-2-ylphthalazin-2-yl)-N-(oxolan-3-yl)acetamide]
[1]
  IC50: < 10 µM
[2]
  IC50: 2.53 µM

## CC(C)c1nn(CC(=O)Nc2ccc(C#N)cc2F)c(=O)c2ccc(Br)cc12 [Example 59, 2-(6-bromo-1-oxo-4-propan-2-ylphthalazin-2-yl)-N-(4-cyano-2-fluorophenyl)acetamide]
[1]
  IC50: < 10 µM
[2]
  IC50: 0.457 µM

## CC(C)c1nn(CC(=O)Nc2ncncc2F)c(=O)c2ccc(C3CC3)cc12 [Example 19, 2-(6-cyclopropyl-1-oxo-4-propan-2-ylphthalazin-2-yl)-N-(5-fluoropyrimidin-4-yl)acetamide]
[1]
  IC50: < 10 µM
[2]
  IC50: 0.334 µM

## CC(C)c1nn(CC(=O)Nc2ccncn2)c(=O)c2ccc(Br)cc12 [Example 33, 2-(6-bromo-1-oxo-4-propan-2-ylphthalazin-2-yl)-N-pyrimidin-4-ylacetamide]
[1]
  IC50: < 10 µM
[2]
  IC50: 0.176 µM

## CC(C)c1nn(CC(=O)NCc2ccnn2C)c(=O)c2ccc(Br)cc12 [Example 128, 2-(6-bromo-1-oxo-4-propan-2-ylphthalazin-2-yl)-N-[(2-methylpyrazol-3-yl)methyl]acetamide]
[1]
  IC50: < 10 µM
[2]
  IC50: 5.26 µM

## CC(C)c1nn(CC(=O)N[C@@H]2CCCN(C3CCC3)C2)c(=O)c2ccc(Br)cc12 [Example 106, 2-(6-bromo-1-oxo-4-propan-2-ylphthalazin-2-yl)-N-[(3R)-1-cyclobutylpiperidin-3-yl]acetamide]
[1]
  IC50: < 10 µM
[2]
  IC50: 0.058 µM

## CC(C)c1nn(CC(=O)Nc2ncccc2F)c(=O)c2ccc(Br)cc12 [Example 35, 2-(6-bromo-1-oxo-4-propan-2-ylphthalazin-2-yl)-N-(3-fluoropyridin-2-yl)acetamide]
[1]
  IC50: < 10 µM
[2]
  IC50: 0.529 µM

## CC(C)c1nn(CC(=O)Nc2ncc(Cl)cn2)c(=O)c2ccc(Br)cc12 [Example 120, 2-(6-bromo-1-oxo-4-propan-2-ylphthalazin-2-yl)-N-(5-chloropyrimidin-2-yl)acetamide]
[1]
  IC50: < 10 µM
[2]
  IC50: 0.025 µM

## CC1CC(NC(=O)Cn2nc(C(C)C)c3cc(Br)ccc3c2=O)CCO1 (stereo not drawn) [Example 43, 2-(6-bromo-1-oxo-4-propan-2-ylphthalazin-2-yl)-N-(2-methyloxan-4-yl)acetamide]
[1]
  IC50: < 10 µM
[2]
  IC50: 4.23 µM

## O=C(Cn1nc(C(F)F)c2c(F)c(Br)ccc2c1=O)Nc1ncc(F)cn1 [Example 26, 2-[6-bromo-4-(difluoromethyl)-5-fluoro-1-oxophthalazin-2-yl]-N-(5-fluoropyrimidin-2-yl)acetamide]
[1]
  IC50: < 10 µM
[2]
  IC50: 0.078 µM

## O=C(Cn1nc(CC(F)(F)F)c2cc(Br)ccc2c1=O)Nc1ncncc1F [Example 91, 2-[6-bromo-1-oxo-4-(2,2,2-trifluoroethyl)phthalazin-2-yl]-N-(5-fluoropyrimidin-4-yl)acetamide]
[1]
  IC50: < 10 µM
[2]
  IC50: 0.489 µM

## CC(C)c1nn(CC(=O)Nc2cncnc2)c(=O)c2ccc(Br)cc12 [Example 56, 2-(6-bromo-1-oxo-4-propan-2-ylphthalazin-2-yl)-N-pyrimidin-5-ylacetamide]
[1]
  IC50: < 10 µM
[2]
  IC50: 3.23 µM

## CC(C)c1nn(CC(=O)Nc2c(F)cnn2C)c(=O)c2ccc(Br)cc12 [Example 50, 2-(6-bromo-1-oxo-4-propan-2-ylphthalazin-2-yl)-N-(4-fluoro-2-methylpyrazol-3-yl)acetamide]
[1]
  IC50: > 15 µM
[2]
  IC50: 27.5 µM

## O=C(Cn1nc(C(F)F)c2cc(Br)ccc2c1=S)Nc1ncc(F)cn1 [Example 179, 2-[6-bromo-4-(difluoromethyl)-1-thioxophthalazin-2-yl]-N-(5-fluoropyrimidin-2-yl)acetamide]
[1]
  IC50: < 10 µM
[2]
  IC50: 0.486 µM

## CC(C)c1nn(CC(=O)Nc2ncc(F)cn2)c(=O)c2ccc(Br)cc12 [Example 113, 2-(6-bromo-1-oxo-4-propan-2-ylphthalazin-2-yl)-N-(5-fluoropyrimidin-2-yl)acetamide]
[1]
  IC50: < 10 µM
[2]
  IC50: 0.035 µM

## CSc1nn(CC(=O)Nc2ncc(F)cn2)c(=O)c2ccc(Br)cc12 [Example 149, 2-(6-bromo-4-methylsulfanyl-1-oxophthalazin-2-yl)-N-(5-fluoropyrimidin-2-yl)acetamide]
[1]
  IC50: < 10 µM
[2]
  IC50: 0.782 µM

## CC(C)c1nn(CC(=O)NCC2CCOCC2)c(=O)c2ccc(Br)cc12 [Example 74, 2-(6-bromo-1-oxo-4-propan-2-ylphthalazin-2-yl)-N-(oxan-4-ylmethyl)acetamide]
[1]
  IC50: < 10 µM
[2]
  IC50: 3.74 µM

## CC(C)c1nn(CC(=O)NC2CC3(COC3)C2)c(=O)c2ccc(Br)cc12 [Example 54, 2-(6-bromo-1-oxo-4-propan-2-ylphthalazin-2-yl)-N-(2-oxaspiro[3.3]heptan-6-yl)acetamide]
[1]
  IC50: < 10 µM
[2]
  IC50: 0.349 µM

## O=C(Cn1nc(CF)c2cc(C(F)(F)F)ccc2c1=O)Nc1ncc(F)cn1 [Example 147, 2-[4-(fluoromethyl)-1-oxo-6-(trifluoromethyl)phthalazin-2-yl]-N-(5-fluoropyrimidin-2-yl)acetamide]
[1]
  IC50: < 10 µM
[2]
  IC50: 0.279 µM

## O=C(Cn1nc([C@H]2C[C@H]2F)c2cc(Br)ccc2c1=O)Nc1ncc(F)cn1 (single isomer, unassigned) [Example 165, 2-[6-bromo-4-[2-cis-fluorocyclopropyl]-1-oxophthalazin-2-yl]-N-(5-fluoropyrimidin-2-yl)acetamide]
[1]
  IC50: < 10 µM
Inhibition of IL-1β secretion, numeric column of Table 3
  IC50: 0.613 µM

## CC(C)c1nn(CC(=O)NCC2COCCN2C)c(=O)c2ccc(Br)cc12 (stereo not drawn) [Example 58, 2-(6-bromo-1-oxo-4-propan-2-ylphthalazin-2-yl)-N-[(4-methylmorpholin-3-yl)methyl]acetamide]
[1]
  IC50: < 10 µM
[2]
  IC50: 3.99 µM

## CC(C)c1nn(CC(=O)NCc2ccccc2)c(=O)c2ccc(Br)cc12 [Example 129, N-benzyl-2-(6-bromo-1-oxo-4-propan-2-ylphthalazin-2-yl)acetamide]
[1]
  IC50: < 10 µM
[2]
  IC50: 20.1 µM

## CC(C)c1nn(CC(=O)NC2CCOCC2)c(=O)c2ccc(Br)cc12 [Example 53, 2-(6-bromo-1-oxo-4-propan-2-ylphthalazin-2-yl)-N-(oxan-4-yl)acetamide]
[1]
  IC50: < 10 µM
[2]
  IC50: 1.13 µM

## C[C@H]1C[C@H](Oc2nn(CC(=O)Nc3ncc(F)cn3)c(=O)c3ccc(Br)cc23)C1 [Example 158, 2-[6-bromo-4-(3-trans-methylcyclobutoxy)-1-oxo-phthalazin-2-yl]-N-(5-fluoropyrimidin-2-yl)acetamide]
[1]
  IC50: < 10 µM
[2]
  IC50: 0.309 µM

Reference: patent US20230357162A1, “COMPOUNDS, COMPOSITIONS AND METHODS” (Denali Therapeutics Inc., priority 2020, published 2023)
